Data on two compounds can be found in ChEMBL document CHEMBL1157117, “Synthesis of [11C]SSR149415 and preliminary imaging studies using positron emission tomography” (Bioorg Med Chem Lett, 2010).

Series [1] can be described thus: Metabolic stability in baboon blood at 2.5+/-0.8 mCi, iv after 10 mins. It counts as ADME, organism-based. The settings on record: papio anubis, read-out: Stability.
A short description of series [2]: Octanol/water partition coefficient, log D of the compound. Format: physicochemical.
Series [3] can be described thus: Fraction unbound in baboon plasma. It counts as ADME, cell-free. The conditions noted are these: papio anubis.
A short description of series [4]: Biodistribution in baboon liver at 2.5+/-0.8 mCi, iv followed by second dose administered > 2 hrs after initial dose measured per cc after 90 mins. It counts as ADME, organism-based. The conditions noted are these: papio anubis, in vivo, 1.5 h.
The nature of series [5]: Biodistribution in baboon lung at 2.5+/-0.8 mCi, iv followed by second dose administered > 2 hrs after initial dose measured per cc after 90 mins. Format: ADME, organism-based. The conditions noted are these: papio anubis, in vivo, 1.5 h.
A short description of series [6]: Biodistribution in baboon spleen at 2.5+/-0.8 mCi, iv followed by second dose administered > 2 hrs after initial dose measured per cc after 90 mins. Format: ADME, organism-based. The conditions noted are these: papio anubis, in vivo, 1.5 h.
Series [7] is described as follows: Selectivity ratio of vasopressin V1b receptor over vasopressin V2 receptor.
The nature of series [8]: Selectivity ratio of vasopressin V1b receptor over vasopressin V1a receptor.
Series [9] is described as follows: Selectivity ratio of vasopressin V1b receptor over oxytocin receptor.
Series [10] in a line: Biodistribution in baboon heart at 2.5+/-0.8 mCi, iv followed by second dose administered > 2 hrs after initial dose measured per cc after 90 mins. It counts as ADME, organism-based. The conditions noted are these: papio anubis, in vivo, 1.5 h.

As a reminder, the logD is lipophilicity at a set pH, counting ionised and neutral species. A low value points to lower lipophilicity. What is called fraction unbound is the share of the substance not bound to proteins or other matrix. Read a high fraction unbound as much free substance. Take `COc1ccccc1[C@@]1(N2C[C@H](O)C[C@H]2C(=O)N(C)C)C(=O)N(S(=O)(=O)c2ccc(O[11CH3])cc2OC)c2ccc(Cl)cc21`: in series [1], the remaining at 10 min was found to be 50%. The same compound showed a log distribution coefficient (logD) in series [2] of 3.22. Further, the unbound share (fraction unbound) in series [3] stood at 0.0254.

On to `COc1ccc(S(=O)(=O)N2C(=O)[C@@](c3ccccc3OC)(N3C[C@H](O)C[C@H]3C(=O)N(C)C)c3cc(Cl)ccc32)c(OC)c1` [NELIVAPTAN], for which the Drug uptake in [4] is reported as 0.1 %ID; in series [5], 0.01 %ID; in series [6], 0.01 %ID; in [10], 0.01 %ID. The Ratio in series [7], in series [8] and in [9] was 100 throughout.
